“Also recorded” adds a separate entry of the source.
How the values were obtained:
[1] = test system: pig kidney, heart and liver sections; test: Immunostaining of pig tissues with anti-GAL antibodies; type: binding; settings: pig renal cortex sections, proximal tubule brush borders; sugar 0.1 M
Protocol: Pig kidney was fixed in formalin and dehydrated before embedding in Paraplast. Pig heart and liver were fixed in paraformaldehyde-lysine-periodate fixative and snap frozen in O.C.T. embedding compound (10.24% w/w polyvinyl alcohol, 4.26% w/w polyethylene glycol, 85.50% w/w nonreactive ingredients; Tissue Tek®, Miles, Inc., Elkhart, Ind., USA). Four μm-thick sections of pig heart and liver and 2 μm-thick sections of kidney were incubated with purified anti-GAL antibodies (undiluted, 1:2 and 1:4) for 60 min. and then incubated with a fluorescein isothiocyanate (FITC)-conjugated sheep anti-human immunoglobulin F(ab′) fragment. (Silenus Laboratories, Hawthorn, Australia) (1:100) for 30 min. or a peroxidase-conjugated rabbit anti-human IgG (Dakopatts, Glostrup, Denmark) (1:50) for 60 min. Control sections were analyzed for autofluorescence, with the secondary antibody alone, or with the anti-GAL-depleted IgG or normal pig serum as the primary antibody. […] The specificity of the anti-GAL antibodies was tested by pre-incubating sections of pig renal cortex with a variety of sugars, including melibiose, lactose, sucrose and glucose at 0.1 M.

pig RBC = test: Hemagglutination of pig RBC by human serum: sugar inhibition; type: cell-based; settings: for Inhibitory Concentration: inhibition of pig RBC hemagglutination by pooled human AB serum; for concentration range inhibiting agglutination (in words): pig RBC agglutination by human serum
Protocol: The methods used to investigate the hemagglutination of pig red blood cells (RBC's) by human serum was adapted from the methods described by Galili, J. Exp. Med. 160: 1579–81 (1984) and Severson, Immunol. 96: 785–789 (1966).
A. Media/Solution Preparation • 1. Human Serum Albumin (HSA) (CSL, Melbourne, Australia) (5 mg/ml) was dissolved in PBS, filter sterilized, and stored at 4° C. • 2. Preparation of sugars: • 1 M stock solutions of sugar were prepared by dissolving the amount indicated in 100 ml of PBS. Sodium azide was added (0.02%) and solutions stored at 4° C.
B. Preparation of Pig RBC'S • 1. Heparinised pig blood (Animal Resources, Clayton, Australia) is centrifuged at 800 RPM for 10 min to pellet the RBC. • 2. The RBC pellet is washed by resuspension in PBS (10 ml) and recentrifugation (repeated 3 times). After the final wash, the RBC pellet is resuspended in 10 ml PBS. • 3. A 0.5% solution of RBC's is prepared by adding 50 ul RBC solution (from step 2, above) to 10 ml PBS containing 0.5 g/100 ml of HSA.
C. Preparation of 96-well Microtitre Plates (Titretek. USA) • 1. Add 25 ul of PBS to each well. • 2. Add 25 ul of pooled human AB serum (CSL, Melbourne, Australia) to column 1 and serially dilute by removing 25 ul from column 1 and adding to column 2, then repeating by sequentially removing and adding 25 ul from and to each well across the plate, finally discarding 25 μl from column 11 and adding no serum to column 12. • 3. Add 25 ul of sugar solution to each row in decreasing concentrations down rows. No sugar solution is added to the final row. • 4. Incubate at 4° C. overnight and then at 37° C. for 30 min. • 5. Add 50 ul of 0.5% pig RBC to each well; vortex and incubate at room temperature for 2 hours. Determine agglutination visually. II. Results

PAE's = test: Cytotox LDH release assay: effect of sugars on lysis of PAE's by human serum; type: cell-based, porcine; settings: 50% human serum, sugar 1 mM to 100 mM
Protocol: B. LDH Release Assay • 1. […] Controls: • a) Spontaneous release (no antibody or complement) • 25 μl labeled cells • 75 μl RPMI/10% FCS (heat inactivated) • b) Maximum release • 25 μl labeled cells • 50 μl 16% Triton X-100 • 25 μl RPMI/10% FCS (heat inactivated) • 3. Calculation of % Lysis: % Lysis=Experimental release−(Spontaneous release cpm+sugar cpm)×100 Maximum release−(Spontaneous release cpm+sugar cpm) • 4. Experimental Design:
The effect of adding the disaccharide sugars melibiose ([…]) and lactose (Gal β1→4 Glu) on the lysis of PAE's by human serum was assessed using the Cytotox non-radioactive LDH release assay. PAE's were incubated in the presence of 50% human serum as the source of xenoantibody and complement, together with various concentrations of each sugar (1 mM to 100 mM).

Row | SMILES | inhibition of anti-GAL antibody binding to pig tissue by sugar [1] | Inhibitory Concentration (pig RBC) | concentration range inhibiting agglutination (in words) (pig RBC) | protection of PAE's from lysis by human serum (PAE's)
1 | O=C[C@H](O)[C@@H](O)[C@H](O)[C@H](O)CO[C@H]1O[C@H](CO)[C@H](O)[C@H](O)[C@H]1O [Melibiose, 6-O-α-D-galactopyranosyl-D-glucose] | reduced to near background; also recorded: inhibited | 0.0005 M | μM to mM range | protected the pig cells from lysis
2 | OC[C@H]1O[C@@H](O[C@H]2[C@H](O)[C@@H](O)[C@@H](O)O[C@@H]2CO)[C@H](O)[C@@H](O)[C@H]1O [Lactose, 4-O-β-D.galactopyranosyl-α-D-glucose] | not inhibited | >10^−1M | only inhibitory when very high concentrations were used | not
